In general, EC50 refers to the concentration at which the effect is half-maximal.

The values below come from patent US20080044390A1, “Methods and compositions for the treatment of neurodegenerative disorders” (priority 2006, published 2008).

Experiment [1] concerns PC12/HttN90Q103 cells. Kind of experiment: CellTiter-Blue assay, rescue of HttN90Q103-induced cell death. Format: cell-based, rat. The text has this:
(§1) In this stable PC12 line (PC12/HttN90Q103), transcription of the Htt transgene is driven by an ecdysone-regulated promoter such that the expression of HttN90Q103 can be turned on or off by the addition or removal of the non-steroidal ecdysone analog tebufenozide (teb).
(§2) Using the engineered PC12/HttN90Q103 cell line together with Perkin Elmer's ATPlite™ assay kit or CellTiter-Blue™ assay, a high throughput assay to screen small molecules for their ability to prevent mutant Htt exon 1-induced cell death was developed and optimized.
(§3) The following formulas were used to calculate mutant Htt-induced cytotoxicity and test compound rescue: % killing=[(un-induced−induced-DMSO treated)/un-induced]×100 % rescue=[(drug treated−induced-DMSO treated)/(un-induced−induced-DMSO treated)]×100
For single-agent ranking, the assay was performed in 384-well plates to obtain duplicate dose response curves in 12-step dilutions with a dosing ratio f=2 over 3 orders of magnitude.
The uncertainty of each fitted parameter was estimated from the range over which the change in reduced chi-squared was less than one, or less than minimum reduced chi-squared if that minimum exceeded one, to allow for underestimated σI errors.
(§4) Day 1—Add Compounds 4 hours post-induction • 1) Remove compound plates from dessicator. • 2) Using the PlateMate, prepare dilution plate with 100 μL per well of the complete cell medium at room temperature in clear untreated 384-well plates. • 3) Using the MiniTrak, make compound dilution plates: 1 μL from each well of stock plates into 100 μL of media in the dilution plate for a 1:100 dilution (10× stock in media). • 4) Using the MiniTrak, add 4.5 μL of the diluted stock to each well of cells in assay plates. • 5) Make positive control solution: dilute 20 mM stock of BOC-D-FMK in media for a 10× stock. • 6) Manually add 4.5 μL positive control to C1-N1. • 7) Incubate plates at 37° C. for three days. • (for ranking combinations, steps 5 and 6 are omitted as there is positive control on the compound plates)
Day 4—CellTiter-Blue™ assay • 1) Make solution of 5% CellTiter-Blue™ in Q103 media. • 2) Using the Multidrop, add 40 μL of 5% CellTiter-Blue™ solution to each well of the assay plates. • 3) Incubate plates with CellTiter-Blue™ at 37° C.
For orientation: Alamar Blue is a resazurin reagent that responds to reducing activity.

Experiment [2] deals with PC12/HttN90Q103 cells. Kind of experiment: ATPlite assay, rescue of HttN90Q103-induced cell death. Format: cell-based, rat. Particulars: ATPlite, single agent; for EC50: sigmoidal fit of 12-step dose response, read-out: EC50; for Emax: read-out: Max Effect (% rescue).
Source text: as §1, §2, §3
For single-agent ranking, the assay was performed in 384-well plates to obtain duplicate dose response curves in 12-step dilutions with a dosing ratio f=2 over 3 orders of magnitude. […]
as §4
Day 4—Perform ATPlite™ Assay • 1) Take plates out of the incubator. • 2) Using the PlateMate, add 40 μL of ATPlite™ 1-step solution (Perkin Elmer) to each well of the assay plates. • 3) Wait ten minutes to allow plates to dark-adapt. • 4) Read luminescence intensity in Wallac plate reader using […]
For orientation: Cellular ATP, detected with luciferase, serves as a proxy for viable cell number.

Setting [3] is: CellTiter-Blue, single agent, 250 nM tebufenozide induction.
Where [4] appears, read: CellTiter-Blue, single agent, sigmoidal fit of 12-step dose response, read-out: EC50.
Where [5] appears, read: Rattus norvegicus, PC-12, CellTiter-Blue, single agent, 250 nM tebufenozide induction, read-out: Max Effect (% rescue).
Setting [6] is: Rattus norvegicus, PC-12, CellTiter-Blue, single agent, sigmoidal fit of 12-step dose response, read-out: EC50.
The mark [7] stands for this setting: Rattus norvegicus, PC-12, 250 nM tebufenozide induction.

Consider `CN1c2c(nc(N)[nH]c2=O)NCC1CNc1ccc(C(=O)N[C@@H](CCC(=O)O)C(=O)O)cc1` (some centres unmarked) [5-methyl-5-6-7-8-tetrahydropteroylglutamic-acid], for which, in the experiment with PC12/HttN90Q103 cells [1] (setting [3]), the “Max Effect (% rescue)” value came to 34%. In the experiment with PC12/HttN90Q103 cells [1] (setting [4]), the EC50 worked out at 9.3 µM.
Take `CC(=O)c1ccc(S(=O)(=O)NC(=O)NC2CCCCC2)cc1` [Acetohexamide]: the Emax in the experiment on PC12/HttN90Q103 cells [1] (setting [5]) was found to be 18%. Further, the EC50 in the experiment on PC12/HttN90Q103 cells [1] (setting [6]) stood at 3.9 µM.
Turning to `NC(=O)c1ncn([C@@H]2O[C@H](CO)[C@@H](O)[C@H]2O)c1N` [Aicar], in the experiment with PC12/HttN90Q103 cells [1] (setting [3]), the “Max Effect (% rescue)” value was 23%. Also, the EC50 in the experiment on PC12/HttN90Q103 cells [1] (setting [4]) is 14.1 µM.
Regarding `C=C1/C(=C\C=C2/CCC[C@]3(C)[C@@H]([C@H](C)CCCC(C)(C)O)CC[C@@H]23)C[C@@H](O)C[C@@H]1O` [Calcitriol], the EC50 in the experiment on PC12/HttN90Q103 cells [1] (Rattus norvegicus, PC-12) stood at 0.01 µM. For the same compound, the Emax in the experiment with PC12/HttN90Q103 cells [1] (Rattus norvegicus, PC-12, read-out: Max Effect (% rescue)) is 33%.
As for `C[N+](C)(C)CCOC(N)=O` [Carbachol], the Emax in the experiment on PC12/HttN90Q103 cells [1] (setting [5]) turned out to be 15%. Also, the EC50 in the experiment on PC12/HttN90Q103 cells [1] (setting [6]) is 6.8 µM.
As for `COC(=O)CC[C@@H](C)[C@H]1CC[C@H]2[C@@H]3[C@H](OC(C)=O)C[C@@H]4C[C@H](OC(C)=O)CC[C@]4(C)[C@H]3CC[C@]12C` [Chenodeoxycholic acid diacetate methyl ester], in the experiment on PC12/HttN90Q103 cells [1] (setting [3]), the “Max Effect (% rescue)” value is 24%. Besides, in the experiment on PC12/HttN90Q103 cells [1] (setting [4]), the EC50 came out at 2.1 µM.
Consider `O=c1cc(-c2ccccc2)oc2cc(O)cc(O)c12` [Chrysin], for which the Emax in the experiment with PC12/HttN90Q103 cells [1] (setting [5]) is 14%. Moreover, in the experiment with PC12/HttN90Q103 cells [1] (setting [6]), the 50% effective concentration (EC50) is 1.1 µM.
For `Oc1ccc(Cl)cc1Cc1ccccc1` [Clorophene], in that order: 30% and 0.9 µM.
`C[C@]12CC[C@H](O)CC1=CC[C@@H]1[C@@H]2CC[C@]2(C)C(=O)CC[C@@H]12` [Dehydroepiandrosterone]: the Emax with PC12/HttN90Q103 cells [1] (setting [5]) was 21%. Moreover, the half-maximal effective concentration (EC50) with PC12/HttN90Q103 cells [1] (setting [6]) was 11 µM.
Turning to `C[C@H]1O[C@@H](O[C@H]2[C@@H](O)C[C@H](O[C@H]3[C@@H](O)C[C@H](O[C@H]4CC[C@@]5(C)[C@H](CC[C@@H]6[C@@H]5CC[C@]5(C)[C@@H](C7=CC(=O)OC7)CC[C@]65O)C4)O[C@@H]3C)O[C@@H]2C)C[C@H](O)[C@@H]1O` [Digitoxin], the Emax with PC12/HttN90Q103 cells [1] (setting [5]) was 11%. Besides, the EC50 with PC12/HttN90Q103 cells [1] (setting [6]) amounted to 3.5 µM.
For `c1ccc2c(c1)[I+]c1ccccc1-2` [Diphenyleneiodonium], the Emax in the experiment on PC12/HttN90Q103 cells [1] (setting [5]) is 26%. Besides, in the experiment with PC12/HttN90Q103 cells [1] (setting [6]), the half-maximal effective concentration (EC50) is 0.1 µM.
For `C=C1C[C@@H]2[C@H](CC[C@]3(C)C(=O)CC[C@@H]23)[C@@]2(C)C=CC(=O)C=C12` [Exemestane], in that order: 16% and 1.5 µM.
For `COc1ccc(CNC(=O)Nc2ncc([N+](=O)[O-])s2)cc1` [GSK-3β inhibitor VIII (AR-A014418), N-(4-Methoxybenzyl)-N′-(5-nitro-1,3-thiazol-2-yl)urea], in that order: 43% and 3.6 µM.
As to `O=C1NCCC1=Cc1ccc2c(c1)OCO2` [Heat shock protein inhibitor I (KNK-437), 3,4-methylenedioxy-benzylidine-γ-butyrolactam], in the experiment on PC12/HttN90Q103 cells [1] (setting [3]), the “Max Effect (% rescue)” value was found to be 20%. The EC50 in the experiment on PC12/HttN90Q103 cells [1] (setting [4]) amounted to 8.2 µM.
`O=C1Nc2ccccc2/C1=C1/Nc2ccccc2/C1=N\O` [Indirubin-3′-monooxime]: the “Max Effect (% rescue)” value in the experiment with PC12/HttN90Q103 cells [2] (250 nM tebufenozide induction) stood at 30%. The EC50 with PC12/HttN90Q103 cells [2] came to 2.4 µM.
Consider `O=C(/C=C/c1ccc(O)cc1)c1ccc(O)cc1O` [Isoliquiritigenin], for which the Emax in the experiment with PC12/HttN90Q103 cells [2] (setting [7]) is 27%. Also, in the experiment with PC12/HttN90Q103 cells [2] (Rattus norvegicus, PC-12), the EC50 was 12.5 µM.
Regarding `O=c1c(O)c(-c2ccc(O)cc2)oc2cc(O)cc(O)c12` [Kaempferol], the Emax in the experiment on PC12/HttN90Q103 cells [2] (setting [7]) was 15%. Moreover, the EC50 in the experiment on PC12/HttN90Q103 cells [2] (Rattus norvegicus, PC-12) was found to be 12.2 µM.
For `O=C1Cc2c([nH]c3ccc(Br)cc23)-c2ccccc2N1` [Kenpaullone], in that order: 87% and 4.7 µM.
For `CC(C=NNC(=N)N)=NNC(=N)N` [Methylglyoxal bis(guanylhydrazone)], in that order: 79% and 7.7 µM.
